Results from paper PMC11466185, “Mechanisms and efficacy of small molecule latency-promoting agents to inhibit HIV reactivation ex vivo” (JCI Insight, 2024).
Values joined by “and” are separate entries in the source; they are usually repeats but may differ in a detail not shown here. Equal entries are not always repeated.

Key:
[1] = tested on: HIV transcripts (TAR, LLTR, Pol, PolyA, TatRev); assay: Cell-associated HIV transcripts (RT-ddPCR) 6 days after anti-CD3/CD28 activation of PBMCs from ART-suppressed PWH; type: cell-based; settings: for Pol / PolyA / TAR / TatRev: DMSO αCD3/28 = 100, Fig 4A; for LLTR/TAR / PolyA/LLTR / TatRev/PolyA: DMSO+CD3/28 = 1, Fig 4B, C and D
Description: Next, we evaluated the ability of the candidate LPAs to sustain the inhibitory effects during a prolonged ex vivo culture. To this end, PBMCs were cultured in the presence of individual drugs in DMSO or in DMSO alone as control, activated (anti-CD3/CD28), and harvested after 6 days. […] However, we decided to test the drug on day 6 because extra cells were available from some study participants.
Each drug was tested in PBMCs from at least 6 ART-suppressed study participants (except for KRIBB11, n = 5). PBMCs were aliquoted into wells at 6 × 10^6 cells/well. After activation, the cells were cultured with antiretrovirals in the presence of individual drugs in DMSO or DMSO alone as control. All conditions were tested in the presence of CD3/28 T cell–activating beads, except for the unactivated DMSO condition. After 6 days, total cellular RNA was extracted, and the progression through different stages of HIV transcription was quantified by measuring the levels of initiated (TAR), 5′ elongated (LLTR), midtranscribed/unspliced (Pol), completed (PolyA), and multiply spliced (TatRev) HIV transcripts. (A) The levels of all HIV transcripts were normalized to 1 μg of total cellular RNA and expressed as a percentage of the activated DMSO control (% of activated DMSO). Medians are shown as well as the individual values per study participant in different colors. (B–D) The effect of each drug on HIV transcriptional progression after activation was analyzed by the ratio of one HIV transcript to another. Ratios are independent of HIV infection frequency or normalization to cell numbers. Shown are the proportion of (B) all HIV transcripts that are elongated (LLTR/TAR), (C) elongated HIV transcripts that are completed (PolyA/LLTR), and (D) completed transcripts that are multiply spliced (TatRev/PolyA). Medians and IQR are presented, along with the individual values per study participant in different colors. P values were calculated using Wilcoxon’s signed-rank test: *P < 0.05.
PBMCs were isolated from fresh venous blood from 16 ART-suppressed HIV-infected study participants using Ficoll density gradient centrifugation. The cells were seeded at 6 × 10^6 cells/well and cultured with antiretrovirals (nevirapine and indinavir) to prevent new infection. On the next day, PBMCs were activated with anti-CD3/CD28–coated beads (Invitrogen) in the presence of 20 U/mL IL-2 and individual drugs in DMSO or DMSO alone as a control. Since we were limited in the PBMC yield per study participant, different study participants were used for different experiments (such as the initial screen, dose response, different time points, and studies in activated vs. unstimulated cells). In addition, the yields of PBMCs were sometimes insufficient to test all drugs for a given question or experiment.
For quantification of cell-associated HIV transcripts, PBMCs were harvested either after 24 hours or after 6 days. The cell viabilities were measured by trypan blue staining; then the cells were pelleted by centrifuging at 300g for 6 minutes and stored at –80°C. For quantification of virion-associated HIV RNA, cell culture supernatant was collected from 6 × 10^6 PBMCs that were treated and activated for 6 days as described above. Residual cells and cellular debris were subsequently removed from the supernatant by differential centrifugation (300g for 6 minutes, then 20,000g for 10 minutes), and the supernatant was stored at –80°C.
Total cellular DNA and RNA were extracted in parallel using Trireagent (Molecular Research Center) according to the manufacturer’s instructions, except for study participants 2147 and 2461 (Figure 4), for whom DNA and RNA were extracted using the QIAGEN AllPrep DNA/RNA/miRNA Universal Kit with on-column DNase I treatment of the RNA and the manufacturer’s modification to enhance recovery of short transcripts.

[2] = tested on: PBMCs; assay: Total number of live cells (proliferation) by trypan blue staining at day 6; type: cell-based, human; settings: for Total live cell numbers (proliferation) compared with activated DMSO (in words) / Total number of live cells (Fig 6A): day 6; for Total live cell numbers (proliferation) compared with activated DMSO (in words): Figure 6A; for Fig 6B: total live cells relative to DMSO+CD3/28: DMSO+CD3/28 = 100
Description: Some of our candidate LPAs can block the effects of T cell activation, which could affect T cell proliferation. Therefore, we evaluated the extent to which variations in the level of infected cells may contribute to reductions in different HIV RNA transcripts. We measured the total number of viable cells (as a measure of proliferation) and the conserved U3-U5 LTR HIV DNA region (as a measure of total infection frequency) at day 6.
(A) After 6 days, the total number of live cells was measured by trypan blue staining and then normalized to the levels of the activated DMSO (% of activated DMSO). All conditions were tested in the presence of CD3^+/CD28^+ T cell–activating beads, except for the unactivated DMSO condition. Bars indicate medians, and different colors indicate individual study participants. Comparisons were performed using Wilcoxon’s signed-rank test. (B) Total cellular DNA was extracted, and the levels of U3-U5 HIV DNA were measured to quantify infection frequency at 6 days. HIV DNA levels were normalized to copies per 10^6 cells using the input of cellular DNA (assuming 1 μg of total DNA corresponds to 160,000 cells) and then normalized to the activated DMSO control (% of activated DMSO). Bars indicate medians, and different colors indicate individual study participants.

pladienolide B
LLTR HIV transcripts (DMSO αCD3/28 = 100) ([1]; 10nM, 6 days after αCD3/28 activation, each column one participant): 48.15 and 112.06 and 64.44 and 97.37 and 80.45 and 82.86 | Pol ([1]; participant 2027): 56.14 | PolyA ([1]; participant 2027): 45.13 | TAR ([1]; participant 2027): 270.3 | TatRev ([1]; participant 2027): 0 | LLTR/TAR ([1]; participant 2027): 0.3065 | PolyA/LLTR ([1]; participant 2027): 0.5447 | TatRev/PolyA ([1]; participant 2027): 0 | Pol ([1]; participant 2147a): 74.51 | PolyA ([1]; participant 2147a): 38.34 | TAR ([1]; participant 2147a): 177.4 | TatRev ([1]; participant 2147a): 22.95 | LLTR/TAR ([1]; participant 2147a): 0.2714 | PolyA/LLTR ([1]; participant 2147a): 0.7963 | TatRev/PolyA ([1]; participant 2147a): 0.342 | Pol ([1]; participant 2161): 44.19 | PolyA ([1]; participant 2161): 152.38 | TAR ([1]; participant 2161): 52.78 | TatRev ([1]; participant 2161): 381.82 | LLTR/TAR ([1]; participant 2161): 1.5241 | PolyA/LLTR ([1]; participant 2161): 1.89 | TatRev/PolyA ([1]; participant 2161): 2.506 | PolyA ([1]; participant 2461): 53.85 | TAR ([1]; participant 2461): 91.45 | LLTR/TAR ([1]; participant 2461): 1.065 | PolyA/LLTR ([1]; participant 2461): 0.553 | Pol ([1]; participant 2747): 21.03 | PolyA ([1]; participant 2747): 65.33 | TAR ([1]; participant 2747): 95.91 | TatRev ([1]; participant 2747): 0 | TatRev/PolyA ([1]; participant 2747): 0 | Pol ([1]; participant 2750): 212.24 | PolyA ([1]; participant 2750): 74.85 | TAR ([1]; participant 2750): 108.21 | TatRev ([1]; participant 2750): 155 | LLTR/TAR ([1]; participant 2750): 1.036 | PolyA/LLTR ([1]; participant 2750): 0.668 | TatRev/PolyA ([1]; participant 2750): 2.0707 | Total live cell numbers (proliferation) compared with activated DMSO (in words) [2]: significantly lower | Fig 6B: total live cells relative to DMSO+CD3/28 ([2]; participant 2027): 130.18 | Fig 6B: total live cells relative to DMSO+CD3/28 ([2]; participant 2147a): 87.14 | Fig 6B: total live cells relative to DMSO+CD3/28 ([2]; participant 2147b): 432.65 | Fig 6B: total live cells relative to DMSO+CD3/28 ([2]; participant 2161): 52.54 | Fig 6B: total live cells relative to DMSO+CD3/28 ([2]; participant 2461): 69.04 | Fig 6B: total live cells relative to DMSO+CD3/28 ([2]; participant 2747): 68.1 | Total number of live cells (Fig 6A) ([2]; study participant 150a): 26.64 % of activated DMSO | Total number of live cells (Fig 6A) ([2]; study participant 156): 40.97 % of activated DMSO | Total number of live cells (Fig 6A) ([2]; study participant 163): 70.82 % of activated DMSO | Total number of live cells (Fig 6A) ([2]; study participant 2027): 28.6 % of activated DMSO | Total number of live cells (Fig 6A) ([2]; study participant 2147a): 113.84 % of activated DMSO | Total number of live cells (Fig 6A) ([2]; study participant 2147b): 53.49 % of activated DMSO | Total number of live cells (Fig 6A) ([2]; study participant 2161): 58.44 % of activated DMSO | Total number of live cells (Fig 6A) ([2]; study participant 2461): 29.57 % of activated DMSO | Total number of live cells (Fig 6A) ([2]; study participant 2747): 105.45 % of activated DMSO | Total number of live cells (Fig 6A) ([2]; study participant 2750): 17.9 % of activated DMSO

mithramycin A
LLTR/TAR ([1]; participant 150b): 3.173 | PolyA/LLTR ([1]; participant 150b): 0.3062 | TatRev/PolyA ([1]; participant 150b): 1.15 | LLTR/TAR ([1]; participant 1379): 7.408 | PolyA/LLTR ([1]; participant 1379): 0.07562 | TatRev/PolyA ([1]; participant 1379): 0 | LLTR/TAR ([1]; participant 1713): 1.88 | PolyA/LLTR ([1]; participant 1713): 1.25 | TatRev/PolyA ([1]; participant 1713): 0 | LLTR/TAR ([1]; participant 2147b): 0.4766 | PolyA/LLTR ([1]; participant 2147b): 0.7007 | TatRev/PolyA ([1]; participant 2147b): 0 | LLTR/TAR ([1]; participant 2256): 1.969 | PolyA/LLTR ([1]; participant 2256): 0 | LLTR/TAR ([1]; participant 2750): 4.292 | PolyA/LLTR ([1]; participant 2750): 1.638 | TatRev/PolyA ([1]; participant 2750): 0.3964 | LLTR/TAR ([1]; participant 5557): 0.2056 | PolyA/LLTR ([1]; participant 5557): 46.0561 | TatRev/PolyA ([1]; participant 5557): 3.456 | Total live cell numbers (proliferation) compared with activated DMSO (in words) [2]: significantly lower

CC(C)[C@]12O[C@H]1[C@@H]1O[C@]13[C@]1(O[C@H]1C[C@H]1C4=C(CC[C@@]13C)C(=O)OC4)[C@@H]2O [triptolide]
LLTR/TAR ([1]; participant 150b): 0.3514 | LLTR/TAR ([1]; participant 2147b): 1.135 | LLTR/TAR ([1]; participant 2750): 14.8232 | Total live cell numbers (proliferation) compared with activated DMSO (in words) [2]: significantly lower

O=c1c(O)c(-c2ccc(O)c(O)c2)oc2cc(O)cc(O)c12 [quercetin]
LLTR/TAR ([1]; participant 150b): 0.7842 | PolyA/LLTR ([1]; participant 150b): 1.289 | TatRev/PolyA ([1]; participant 150b): 0.75 | LLTR/TAR ([1]; participant 2027): 0.9301 | PolyA/LLTR ([1]; participant 2027): 0.981 | TatRev/PolyA ([1]; participant 2027): 0.6894 | LLTR/TAR ([1]; participant 2147a): 0.08494 | PolyA/LLTR ([1]; participant 2147a): 0.5196 | TatRev/PolyA ([1]; participant 2147a): 0.8518 | PolyA/LLTR ([1]; participant 2161): 0.79 | TatRev/PolyA ([1]; participant 2161): 0.8634 | LLTR/TAR ([1]; participant 2256): 0.9386 | PolyA/LLTR ([1]; participant 2256): 0.8949 | LLTR/TAR ([1]; participant 2461): 1.332 | TatRev/PolyA ([1]; participant 2747): 0 | Total live cell numbers (proliferation) compared with activated DMSO (in words) [2]: did not change proliferation rates

N#CC[C@H](C1CCCC1)n1cc(-c2ncnc3[nH]ccc23)cn1 [ruxolitinib]
LLTR/TAR ([1]; participant 150b): 0.6749 | PolyA/LLTR ([1]; participant 150b): 0.4135 | TatRev/PolyA ([1]; participant 150b): 0.45 | LLTR/TAR ([1]; participant 2027): 0.1463 | PolyA/LLTR ([1]; participant 2027): 0.4929 | TatRev/PolyA ([1]; participant 2027): 0 | LLTR/TAR ([1]; participant 2147a): 0.473 | PolyA/LLTR ([1]; participant 2147a): 0.2896 | TatRev/PolyA ([1]; participant 2147a): 0 | LLTR/TAR ([1]; participant 2161): 2.396 | PolyA/LLTR ([1]; participant 2161): 0.46 | TatRev/PolyA ([1]; participant 2161): 0 | LLTR/TAR ([1]; participant 2461): 3.402 | PolyA/LLTR ([1]; participant 2461): 0 | LLTR/TAR ([1]; participant 2747): 0.4032 | PolyA/LLTR ([1]; participant 2747): 1.05 | TatRev/PolyA ([1]; participant 2747): 0 | LLTR/TAR ([1]; participant 2750): 1.117 | PolyA/LLTR ([1]; participant 2750): 1.35 | TatRev/PolyA ([1]; participant 2750): 1.555 | Total live cell numbers (proliferation) compared with activated DMSO (in words) [2]: significantly lower
